Key:
Assay type in all cases: in vivo
Scirpus juncoides [1] = assay: Herbicidal efficacy on paddy field weeds of pre-emergence stage (Pre), Test Example 1; settings: 1000 g/ha as active ingredient, examined after 21 days
In short: (§1)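 Clay-loam pots sown with Scirpus juncoides, covered with soil containing Lindernia procumbens seed, flooded to 5 cm. Next day formulated compound applied dropwise to water at 1000 g/ha a.i. Greenhouse-grown; growth inhibition versus untreated scored 0–5 after 21 days.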

Lindernia procumbens = assay: as above; settings: 1000 g/ha as active ingredient, examined after 21 days
In short: as §1

[2] = tested on: transplanted paddy-rice (rice species: Nihonbare); assay: Test of phytotoxicity on transplanted paddy-rice, Test Example 3; settings: two-leaf stage seedlings, 1000 g/ha as active ingredient, applied 5 days after transplantation, examined after 21 days
Source text: Criteria for herbicidal efficacy (growth inhibiting degree) and phytotoxicity. • 5 . . . 100% herbicidal effect, phytotoxicity. • 4 . . . 90%-99% herbicidal effect, phytotoxicity. • 3 . . . 70%-89% herbicidal effect, phytotoxicity. • 2 . . . 40%-69% herbicidal effect, phytotoxicity. • 1 . . . 1%-39% herbicidal effect, phytotoxicity. • 0 . . . 0% herbicidal effect, phytotoxicity.
75 cm^2 plastic pots were filled with the soil (clay loam) and filled with water depth of 5 cm and 2 rice plant seedlings (rice species: Nihonbare) at two-leaf stage were transplanted therein. They were brought up in a greenhouse and, after five days from the transplantation, predetermined effective dosage (1000 g/ha in terms of active ingredient) of formulations comprising a compound of the present invention as an active ingredient was applied to the pot water. Then, they were brought up in a greenhouse and the phytotoxicity was examined after 21 days from the treatment by comparing with the result of an untreated group according to the criteria of Test Example 1. In the table, “-” means that the test was not performed.

Scirpus juncoides [3] = assay: Herbicidal effect on paddy field weeds of post-emergence stage (Post), Test Example 2; settings: one-leaf stage, 1000 g/ha as active ingredient, examined after 21 days
In short: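 Scirpus juncoides and Echinochloa crus-galli sown in clay loam, with Lindernia procumbens seed in the soil cover, under 5 cm flooding in greenhouse. At one-leaf stage, 1000 g/ha active ingredient applied to pot water. Efficacy scored visually 0–5 against untreated plants at 21 days after treatment.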

Compound	Scirpus juncoides pre (herbicidal effect) (Scirpus juncoides [1])	Lindernia procumbens pre (herbicidal effect) (Lindernia procumbens)	Rice (phytotoxicity) [2]	Scirpus juncoides post (herbicidal effect) (Scirpus juncoides [3])
CCCOC(=O)N(c1ccccc1CN1CCCOC1=O)S(=O)(=O)C(F)(F)F [Compound No. 1-4, 3-{2-[N-(propoxycarbonyl)-N -(trifluoromethanesulfonyl)amino]benzyl)-[1,3]-oxazinan-2-one]	4 (90%-99% herbicidal effect, phytotoxicity)	4 (90%-99% herbicidal effect, phytotoxicity)	3 (70%-89% herbicidal effect, phytotoxicity)	4 (90%-99% herbicidal effect, phytotoxicity)
COC(=O)N(c1ccccc1CN1CC(C)(C)COC1=S)S(=O)(=O)C(F)(F)F [Compound No. 1-35, 5,5-dimethyl-3-(2-[N-(methoxycarbonyl)-N-(trifluoromethanesulfonyl)amino]benzyl)-[1,3]-oxazinane-2-thione]	4 (90%-99% herbicidal effect, phytotoxicity)	4 (90%-99% herbicidal effect, phytotoxicity)	2 (40%-69% herbicidal effect, phytotoxicity)	4 (90%-99% herbicidal effect, phytotoxicity)
CC(C)COC(=O)N(c1ccccc1CN1CCC(C)COC1=O)S(=O)(=O)C(F)(F)F (stereo not drawn) [Compound No. 2-28, 3-(2-[N-(isobutoxycarbonyl)-N-(trifluoromethanesulfonyl)amino]benzyl)-6-methyl-[1,3]-oxazepan-2-one]	4 (90%-99% herbicidal effect, phytotoxicity)	4 (90%-99% herbicidal effect, phytotoxicity)	3 (70%-89% herbicidal effect, phytotoxicity)	4 (90%-99% herbicidal effect, phytotoxicity)
